The values below come from patent publication US11230542B2, “Inhibitors of integrated stress response pathway” (Praxis Biotech LLC, priority 2017, dated 2022).

One assay deals with CHO cells. The assay can be described thus: Protein translation assay (puromycin incorporation in CHO cells, unstressed or Tg-stressed). The format is cell-based, Chinese hamster. The following applies: for activity at 0.1 µM / activity at 1 µM: Cricetulus griseus, media alone 100%; for activity at 0.1 µM: read-out: % Recovery of protein expression (100 nM test compound). As to the method:
CHO cells were maintained at 37° C. and 5% CO2 in DMEM supplemented with 10% fetal bovine serum (FBS), 2 mM L-glutamine, 100 U/ml penicillin, and 100 μg/ml streptomycin. After reaching 80% of confluence, cells were detached and seeded on 6 well plates in complete media, allowed to recover overnight and treated for 2 hours with 1 μM of the test compound (to assess protein synthesis levels in unstressed condition), or for 1 hour with 100 nM and 1 μM of the test compound and then co-treated with 300 nM Tg and 100 nM and 1 μM of the test compound (to assess the recovery of protein synthesis in a stressed condition). Cells treated with Tg alone were used as controls.
After the 2 hours treatments, media were replaced by adding 10 μg/ml puromycin (Sigma Aldrich) in complete media for 30 min. Media were removed and cells were lysed with SDS-PAGE lysis buffer. Lysates were transferred to 1.5 ml tubes and sonicated for 3 minutes and total protein amount were quantified using BCA Protein Assay Kit (Pierce). Equal amount of protein (30 μg) was loaded on SDS-PAGE gels. Proteins were transferred onto 0.2 μm PVDF membranes (BioRad) and probed with primary antibodies diluted in Tris-buffered saline supplemented with 0.1% Tween 20 and 3% bovine serum albumin.
Puromycin (12D10) antibody was used as primary antibody (Merck Millipore). A HRP-conjugated secondary antibody (Rockland) was employed to detect immune-reactive bands using enhanced chemiluminescence (ECL Western Blotting Substrate, Pierce). Quantification of protein bands was done by densitometry using ImageJ.
Percent increase of protein synthesis in unstressed cells (without Tg treatment) in the presence of media alone or certain test compounds is shown in Table 3 and FIG. 2. The percentage levels were normalized to the media alone condition, which correspond to 100% protein synthesis.
Percent recovery of protein synthesis in stressed cells (with Tg treatment) due to the test compounds at 100 nM or 1 μM is shown in FIGS. 3A and 3B, respectively, and in Table 3. The levels were normalized to the media alone and to Tg alone conditions, which correspond to 100% and 0% respectively.

In the next assay the test system is ATF4. The assay can be described thus: ATF4 expression inhibition assay (thapsigargin-stressed HEK293T cells, western blot). The assay is classed as cell-based. The following applies: Homo sapiens, HEK-293T; for IC50: 3 h with 100 nM Tg, test compound 1 nM to 1 μM; for inhibition at 0.1 µM: 3 h with 100 nM thapsigargin (Tg) and 100 nM test compound; for inhibition at 0.1 µM / inhibition at 1 µM: Tg alone 0%, untreated 100%; for inhibition at 1 µM: 3 h with 100 nM thapsigargin (Tg) and 1 μM test compound. As to the method:
HEK293T cells were maintained at 37° C. and 5% CO2 in Dulbecco's Modified Eagle's Media (DMEM) supplemented with 10% fetal bovine serum (FBS), 2 mM L-glutamine, 100 U/ml penicillin, and 100 μg/ml streptomycin. […] Cells without treatment or cells treated with Tg alone were used as controls.
After 3 hours of treatment with Tg and the test compound, cells were lysed with SDS-PAGE lysis buffer. Lysates were transferred to 1.5 ml tubes and sonicated for 3 min, and total protein amounts were quantified using BCA Protein Assay Kit (Pierce). Equal amount of proteins were loaded on SDS-PAGE gels. Proteins were transferred onto 0.2 μm PVDF membranes (BioRad) and probed with primary antibodies diluted in Tris-buffered saline supplemented with 0.1% Tween 20 and 3% bovine serum albumin.
ATF4 (11815) antibody was used as primary antibody (Cell Signaling Technologies). A horseradish peroxidase (HRP)-conjugated secondary antibody (Rockland) was employed to detect immune-reactive bands using enhanced chemiluminescence (ECL Western Blotting Substrate, Pierce). Quantification of protein bands was done by densitometry using ImageJ.
Percentages of ATF4 inhibition after induction with Tg in the presence of 100 nM or 1 μM of certain test compounds are shown in Table 2 and FIG. 1. Percentage of ATF4 inhibition was calculated as the percent reduction normalized to Tg treatment (0% inhibition) and untreated cells (100% inhibition). Also shown in Table 2 is the calculated IC50 for the test compounds. […] Accordingly, inhibition of ATF4 expression as a result of the test compound indicates suppression of the ISR pathway.

Setting [1] is: CHO cells stressed with 300 nM Tg, Tg alone 0%.
[2] abbreviates: CHO cells stressed with 300 nM Tg, Tg alone 0%, read-out: % Recovery of protein expression (1 μM test compound).
[3] abbreviates: unstressed CHO cells, 2 h, read-out: % Protein expression relative to untreated (1 μM test compound).

Where two headings read alike, the source gives them in different places. Where only a bound is given, the exact number is not on record here.

By IC50 is commonly meant the concentration that gives 50% inhibition. Read a low IC50 as higher potency. As usually defined, the inhibition is the percentage by which the read-out fell short of the control. Low values mean a weak effect, high ones a strong effect.

As for `O=C(COc1ccc(Cl)c(F)c1)N[C@H]1CC[C@H](NC(=O)c2ccc3cc(Cl)ccc3n2)CC1` [Compound 23, trans-6-chloro-N-(4-(2-(4-chloro-3-fluorophenoxy)acetamido)cyclohexyl)quinoline-2-carboxamide], the activity at 0.1 µM in the assay on CHO cells (setting [1]) worked out at 79.2%. Also, in the assay with CHO cells (setting [2]), the activity at 1 µM is 176%. For the same molecule, in the assay with CHO cells (setting [3]), the activity at 1 µM stood at 120%. Also, in the assay with ATF4, the IC50 stood at 2.1 nM, the inhibition at 0.1 µM was 97% and testing at 1 µM gave an inhibition of 99%.

Regarding `O=C(COc1ccc(Cl)c(F)c1)N[C@H]1CC[C@H](NC(=O)c2cc3ccncc3o2)CC1` [Compound 24, trans-N-(4-(2-(4-chloro-3-fluorophenoxy)acetamido)cyclohexyl)furo[2,3-c]pyridine-2-carboxamide], the activity at 0.1 µM in the assay with CHO cells (setting [1]) came to 11.8%. Also, in the assay with CHO cells (setting [2]), the activity at 1 µM was 24.3%. In the assay with ATF4, this molecule yielded an inhibition at 0.1 µM of 18% and an inhibition at 1 µM of 54%.

As to `CC1(C)CC(NC(=O)COc2ccc(Cl)c(F)c2)CC(C)(C)N1CC(O)COc1ccc(Cl)c(F)c1` (centres unmarked) [Compound 25, 2-(4-chloro-3-fluorophenoxy)-N-(1-(3-(4-chloro-3-fluorophenoxy)-2-hydroxypropyl)-2,2,6,6-tetramethylpiperidin-4-yl)acetamide], the activity at 0.1 µM in the assay on CHO cells (setting [1]) stood at 11.4%. Further, the activity at 1 µM with CHO cells (setting [2]) amounted to 22.9%. Moreover, in the assay with ATF4, 0.1 µM produced 0% inhibition and testing at 1 µM gave an inhibition of 0%.

Regarding `O=C(COc1ccc(Cl)c(F)c1)NC1CCN(CCCOc2ccc(Cl)c(F)c2)CC1` [Compound 28, 2-(4-chloro-3-fluorophenoxy)-N-(1-(3-(4-chloro-3-fluorophenoxy)propyl)piperidin-4-yl)acetamide], the activity at 0.1 µM in the assay on CHO cells (setting [1]) turned out to be 38%. The activity at 1 µM in the assay on CHO cells (setting [2]) turned out to be 170%. In addition, the activity at 1 µM with CHO cells (setting [3]) came out at 99.3%. Moreover, in the assay with ATF4, inhibition was half-maximal at 25.8 nM (IC50), at 0.1 µM the inhibition was 88% and the inhibition at 1 µM worked out at 97%.

In the case of `O=C(NC1CCN(CC(O)COc2ccc(Cl)c(F)c2)CC1)c1cc2cc(Cl)ccc2o1` (centres unmarked) [Compound 29, 5-chloro-N-(1-(3-(4-chloro-3-fluorophenoxy)-2-hydroxypropyl)piperidin-4-yl)benzofuran-2-carboxamide], the activity at 0.1 µM in the assay with CHO cells (setting [1]) turned out to be 48.4%. For the same molecule, the activity at 1 µM with CHO cells (setting [2]) came out at 267%. Moreover, the activity at 1 µM in the assay on CHO cells (setting [3]) amounted to 186%. In the assay with ATF4, this molecule showed a half-maximal inhibitory concentration (IC50) of 51.8 nM, an inhibition at 0.1 µM of 87% and an inhibition at 1 µM of 95%.

Take `O=C(N[C@H]1CC[C@H](NCC(O)COc2ccc(Cl)c(F)c2)CC1)c1ccc2cc(Cl)ccc2n1` (stereo partly drawn) [Compound 30, trans-6-chloro-N-(4-((3-(4-chloro-3-fluorophenoxy)-2-hydroxypropyl)amino)cyclohexyl)quinoline-2-carboxamide]: in the assay on CHO cells (setting [1]), the activity at 0.1 µM is 23.1%. Further, in the assay with CHO cells (setting [2]), the activity at 1 µM turned out to be 182%. Moreover, in the assay on CHO cells (setting [3]), the activity at 1 µM was 206%. The protein translation result in the assay with CHO cells (summary of Table 3) is listed as “increased protein translation”. The “protein synthesis in a cell versus ATF4 translation” value in the assay with CHO cells (under ISR-stressed or non-ISR stressed conditions) is given as “increase protein synthesis in a cell without full inhibition of ATF4 translation”. In the assay on ATF4, this molecule had an IC50 of more than 3000 nM, an inhibition at 0.1 µM of 35% and an inhibition at 1 µM of 35%.

As for `O=C(N[C@H]1CC[C@H](NCCOc2ccc(Cl)c(F)c2)CC1)c1ccc2cc(Cl)ccc2n1` [Compound 31, trans-6-chloro-N-(4-((2-(4-chloro-3-fluorophenoxy)ethyl)amino)cyclohexyl)quinoline-2-carboxamide], in the assay with CHO cells (setting [1]), the activity at 0.1 µM was determined as 25%. Also, the activity at 1 µM with CHO cells (setting [2]) worked out at 288%. Moreover, in the assay on CHO cells (setting [3]), the activity at 1 µM came to 243%. In the assay on ATF4, this molecule gave an inhibition at 0.1 µM of 41% and an inhibition at 1 µM of 93%.

Take `O=C(N[C@H]1CC[C@H](NCCOc2ccc(Cl)c(F)c2)CC1)c1cc2cc(Cl)ccc2o1` [Compound 32, trans-5-chloro-N-(4-((2-(4-chloro-3-fluorophenoxy)ethyl)amino)cyclohexyl)benzofuran-2-carboxamide]: the activity at 0.1 µM in the assay on CHO cells (setting [1]) was determined as 37.7%. Further, the activity at 1 µM with CHO cells (setting [2]) was 234%. Moreover, the activity at 1 µM in the assay with CHO cells (setting [3]) amounted to 137%. In the assay with ATF4, this molecule had an inhibition at 0.1 µM of 38% and an inhibition at 1 µM of 78%.
